Reference: the OPERA property sets (Mansouri et al. 2018)
Where a SMILES comes first, the peptide text is derived from it.

Row | SMILES | logP
1 | CC(C)C(=O)OCC1OC(n2cc(I)c(=O)[nH]c2=O)C1O (stereo not drawn) | 0.83
2 | COc1ccc(C(=O)OCC2OC(n3cnc4c(OC)ncnc43)C2OC(=O)c2ccc(OC)cc2)cc1 (stereo not drawn) | 3.65
3 | O=C(O)Cc1ccc(C2CCCC2)cc1 | 3.44
4 | Cc1cc(Br)cc(C(=O)NC2CC2)c1O | 3.8
5 | COc1ccc(C(=O)CC(C)CC(=O)O)cc1Cl (stereo not drawn) | 2.6
6 | O=C(O)c1ccc(Cl)cc1Nc1ccccc1 | 4.25
7 | CNC(=O)NS(=O)(=O)c1ccc(C)cc1 | 0.95
8 | CCC(C(=O)OCc1ccc(Cl)cc1)C(COC(=O)c1ccccc1)Cc1cncn1C (stereo not drawn) | 4.9
9 | CCC(=O)OCOC(=O)c1cc(S(N)(=O)=O)c(Cl)cc1NCc1ccco1 | 2.9
10 | Cc1cc(Cl)cc(C)c1NC1=NCCN1 | 2.5
11 | Cc1cc(N=O)ccc1O | 1.71
12 | CCCCCCCCC(=O)O | 3.42
13 | Cc1cc(=O)oc2c1ccc1occc12 | 2.32
14 | CCCCCCc1ccc(CC(=O)O)cc1 | 4.25
15 | O=C(Cc1ccccc1)c1ccc2n1CCC2C(=O)O (stereo not drawn) | 2.52
16 | O=C(O)CN1C(=O)C=CC1=O | -0.14
17 | N[C@@H](Cc1cnccn1)C(=O)O | -2.79
18 | Nc1ccc(S(=O)(=O)Nc2ccc([N+](=O)[O-])cc2)cc1 | 2.14
19 | Cc1cccc(C)c1NC(=O)CCN | 0.62
20 | O=C(c1ccc(-c2ccccc2)cc1)c1ccc2n1CCC2C(=O)O (stereo not drawn) | 4.27
21 | Clc1ccc(-c2cccc(Cl)c2)cc1 | 5.15
22 | CCN1CC(C(O)C(CC2CCCCC2)NC(=O)C(Cc2cscn2)NC(=O)C(CC(=O)N2CCOCC2)c2ccccc2)OC1=O (stereo not drawn) | 2.83
23 | COC1CC2(C)C(O)C(F)CC2C2CCc3cc(O)ccc3C12 (stereo not drawn) | 2.35

Row | SMILES | logP
24 | CC(=O)Nc1c(I)c(C(=O)N(C)CC(O)CO)c(I)c(C(=O)N(C)CC(O)CO)c1I (stereo not drawn) | -2.71
25 | CN(C)c1nc(N(C)C)nc(N(C)CCO)n1 | 1.96
26 | CCNC(=O)c1cc(Br)cc(C)c1O | 3.61
27 | CCOC(=O)CNC(=O)CCCCSc1ncnc2nc[nH]c12 | 0.91
28 | O=C(O)Cc1cccc2ccccc12 | 2.24
29 | Cc1ccc2c(c1)C(c1ccccc1)=NCC(=O)N2 | 2.62
30 | CC(C(N)=O)n1nnc2ccccc21 (stereo not drawn) | 0.35
31 | CCCCCc1cc(O)c2c(c1)OC(C)(C)[C@@H]1CCC(CO)=C[C@@H]21 | 5.33
32 | CS(=O)CCn1ccnc1[N+](=O)[O-] (stereo not drawn) | -1.22
33 | CCC(=O)Oc1c(OC)c(OC)c(OC(=O)CC)c2ccccc12 | 3.44
34 | CCC(C(=O)OCc1ccc(C)cc1)C(COC(=O)C(C)(C)C)Cc1cncn1C (stereo not drawn) | 4.55
35 | C=C1C(=O)OC2C=C(C)C3(O)C=CC(C)(CC(OC(=O)C(=CC)COC(C)=O)C12)O3 (stereo not drawn) | 1.19
36 | CCCCCCCCCCCCCc1ccc(O)cc1 | 8.2
37 | CC1Cc2ccccc2CN1 (stereo not drawn) | 1.93
38 | CNC1CC2CC1c1ccccc12 (stereo not drawn) | 2.32
39 | c1ccc(C2CCCN2)cc1 (stereo not drawn) | 1.89
40 | COCc1cnc(-c2ccc(OCC(O)CNCCc3ccc(OC)c(OC)c3)cc2)[nH]1 (stereo not drawn) | 1.71
41 | O=C(O)Cc1ccc2c(c1)C(=O)c1ccccc1CS2 | 2.97
42 | CCN(CC)CCC(=O)Nc1c(C)cccc1C | 2.21
43 | CN(C)CCC(c1ccccc1)c1ccc(C(C)(C)C)cc1 (stereo not drawn) | 5.1
44 | c1ccc(-c2cn[nH]n2)cc1 | 1.91
45 | CN1CC=C(c2cccs2)CC1 | 2.51
46 | Oc1ccc(O)c2ccccc12 | 1.9

Row | SMILES | logP
47 | CCCCCC(CCC)C(=O)O (stereo not drawn) | 3.2
48 | Cc1cc(=O)n2c(n1)CCCC2C (stereo not drawn) | 0.67
49 | CN(C)N=Nc1ccc(C(=O)O)cc1 | 2.33
50 | CCOC(=O)OCCC(SC(=O)OCC)=C(C)N(C=O)CC1=C(C(=O)OCOC(=O)C(C)(C)C)N2C(=O)C(NC(=O)C(=NOC)c3csc(N)n3)C2SC1 (stereo not drawn) | 3.34
51 | O=c1ccccc(O)c1 | 0.81
52 | OCc1ccc(C(O)(Cn2ccnc2)c2ccc(-c3ccncc3)cc2)cc1 (stereo not drawn) | 2.4
53 | COc1cc(C)c(/C=C/C(C)=C/C=C/C(C)=C/C(=O)O)c(C)c1C | 6.4
54 | Fc1cccc(N=C2NCCN2)c1Cl | 1.52
55 | COc1cc(Cc2cnc(N)nc2N)ccc1C(C)C | 3.14
56 | O=C1c2ccccc2C(=O)C1c1ccc(Cl)cc1 | 3.61
57 | CCOC(=O)CC(NC(=O)CCCCSc1ncnc2nc[nH]c12)C(=O)OCC (stereo not drawn) | 1.33
58 | COC(=O)C1=C(C)NC(C)=C(C(=O)OCCN(C)Cc2ccccc2)C1c1cccc([N+](=O)[O-])c1 (stereo not drawn) | 3.82
59 | CCCCC(O)C(=O)O (stereo not drawn) | 0.81
60 | O=C1CC(Oc2ccc(C(=O)CCc3ccccc3)cc2)N1 (stereo not drawn) | 2.48
61 | C=CCC(NC(=O)C(Cc1ccccc1)NS(=O)(=O)N1CCN(C)CC1)C(=O)NC(CC1CCCCC1)C(=O)C(F)(F)C(=O)NCCN1CCOCC1 (stereo not drawn) | 2.73
62 | COC(=O)C(C(=O)OC)=C1SCCS1 | 1.51
63 | CCCCCCCCCCCCCCCCCC(=O)O | 8.23
64 | CCN1CC(C(O)C(CC2CCCCC2)NC(=O)C(Cc2cnc[nH]2)NC(=O)C(Cc2ccc(OC)cc2)NC(=O)N2CCOCC2)OC1=O (stereo not drawn) | 2.11
65 | C=C(C)C(=O)OCCOCCOCCOC(=O)C(=C)C | 1.88
66 | CC12CCC(=O)C=C1CCC1C3CCC4(CCC(=O)O4)C3(C)CC(O)C12F (stereo not drawn) | 2.4
67 | CC(=O)C(C(=O)ON=C(C)C12CC3CC(CC(C3)C1)C2)c1ccccc1 (stereo not drawn) | 4.64
68 | CC(=O)c1c(O)c(C)c(O)c2c1OC1=CC(=O)C(C(C)=O)C(=O)C12C (stereo not drawn) | 2.88
69 | OC(Cn1ccnc1)(c1ccc(-c2cccnc2)cc1)c1ccc(F)cc1F (stereo not drawn) | 3.31

Row | SMILES | logP
70 | C=C1C(=O)OC2CC3(C)CCCC(C)C3=CC12 (stereo not drawn) | 3.38
71 | CC1OC(OC2C(O)CC(OC3CCC4(C)C(CCC5C4CCC4(C)C(C6=CC(=O)OC6)CCC54O)C3)OC2C)CC(O)C1O (stereo not drawn) | 2.15
72 | Cc1ccc(F)cc1NC1=NCCN1 | 1.41
73 | Fc1ccc(Cl)c(N=C2NCCN2)c1 | 1.52
74 | CCOP(N)(=O)ON=C(C#N)c1ccccc1 (stereo not drawn) | 0.72
75 | FC(F)(c1ccccc1)C(F)(F)c1ccccc1 | 5
76 | C=CCC(NC(=O)C(Cc1ccccc1)NS(=O)(=O)N1CCOCC1)C(=O)NC(CC1CCCCC1)C(=O)C(F)(F)C(=O)NCCN1CCOCC1 (stereo not drawn) | 3.39
77 | CCOC(=O)C(CC)(CC)C(=O)NC(N)=O | 1.45
78 | CC(C)(C)c1cc(C2C(=O)c3ccccc3C2=O)cc(C(C)(C)C)c1 | 6.86
79 | CCN(CC)CCCC(=O)Nc1c(C)cccc1C | 2.06
80 | CCOC(=O)C1=C(C)OC(=Cc2ccc(OC)cc2)C1=O | 2.96
81 | CCC1OC(=O)C(C)C(OC2CC(C)(OC)C(OC=O)C(C)O2)C(C)C(OC2OC(C)CC(N(C)C)C2O)C(C)(O)CC(C)C(=O)C(C)C(O)C1(C)O (stereo not drawn) | 2.64
82 | CC(C)CCOC(=O)c1ccccc1 | 4.15
83 | Cc1cnc2n(c1=O)CCCC2C (stereo not drawn) | 0.69
84 | CNC(=S)NCCSCc1cncn1C | 0.32
85 | CCNC(=O)NS(=O)(=O)c1ccc(C)cc1 | 1.14
86 | CCN(CC)C(C)CC(=O)Nc1c(C)cccc1C (stereo not drawn) | 2.63
87 | Cn1c([N+](=O)[O-])cnc1C=Cc1ccncn1 | 0.85
88 | CCCCCCC(C)(C)c1ccc(C2CC(O)CCC2CCCO)c(O)c1 (stereo not drawn) | 6.13
89 | O=C1c2ccccc2C(=O)C1c1ccc(-c2ccccc2)cc1 | 4.79
90 | CCCN1C(=O)SC(=Cc2ccc([N+](=O)[O-])o2)C1=O | 2.4
91 | Clc1cccc(-c2cccc(Cl)c2)c1 | 5.27
92 | CCCCCCCCCCOc1ccc(C(=O)O)cc1 | 6.29

Row | SMILES | logP
93 | CCOC(=O)c1cccc(O)c1 | 2.47
94 | CC1OC(OC2C(O)CC(OC3C(O)CC(OC4CCC5(C)C(CCC6C5CC(O)C5(C)C(C7COC(=O)C7)CCC65O)C4)OC3C)OC2C)CC(O)C1O (stereo not drawn) | 1.36
95 | CCCCCc1ccc(CC(=O)O)cc1 | 3.75
96 | CC(=O)NCC(=O)N[C@H](C(N)=O)C(C)C (Ac-Gly-Val-NH2) | -1.33
97 | O=C1C[N+]([O-])=C(c2ccccc2)c2cc(Cl)ccc2N1 | 1.49
98 | CC(C)N1C(=O)SC(=Cc2ccc([N+](=O)[O-])o2)C1=O | 2.42
99 | Oc1ccc2c(c1)CCCC2 | 2.9
100 | O=C(O)CCn1ccc2ccccc21 | 2.2
101 | CCCc1ccc(O)cc1 | 3.2
102 | CC1(C)CC(N)CC(C)(C)N1O | 0.56
103 | c1ccc(-c2nc3ccccc3o2)cc1 | 3.67
104 | CCCOc1cc(Cc2cnc(N)nc2N)ccc1OC | 1.88
105 | c1ccc2c(c1)ccc1cccnc12 | 3.43
106 | O=[N+]([O-])c1cn(CCN2CCOCC2)cn1 | -0.38
107 | Cc1cc2occc2c2oc(=O)ccc12 | 2.41
108 | O=c1ccn([C@H]2CC[C@@H](CO)O2)c(=O)[nH]1 | -1
109 | Nc1nnc(CCc2ccccc2)o1 | 1.19
110 | Cc1ccccc1OCC(O)CNCCOc1ccc(C(N)=O)cc1 (stereo not drawn) | 2.22
111 | Cc1cccc(C)c1NC(=O)CCCCCN | 1.29
112 | OC(CNCCc1ccncc1)COc1ccc(-c2ncc(-c3cccs3)[nH]2)cc1 (stereo not drawn) | 2.25
113 | O=C(O)c1ccc(Cl)cc1Nc1ccc(I)cc1 | 5.37
114 | O=C(O)c1ccc(Cl)cc1Nc1cccc(Br)c1 | 5.16
115 | O=C(Cn1ccnc1[N+](=O)[O-])NCC(O)CO (stereo not drawn) | -1.85

Row | SMILES | logP
116 | Cc1ccc(S(=O)(=O)NC(=O)NC2CCCCC2)cc1 | 2.9
117 | Cc1ccccc1NC1=NCCN1 | 1.28
118 | Clc1cccc(Br)c1N=C1NCCN1 | 1.73
119 | CCCCCCCCc1ccc(C2C(=O)c3ccccc3C2=O)cc1 | 6.93
120 | CCCCCCCCC=CCCCCCCCC(=O)O | 7.64
121 | C=C(C)C(=O)OCCCOC(=O)C(=C)C | 1.86
122 | NS(=O)(=O)c1nc2c(Cl)cc(Cl)cc2s1 | 2.6
123 | CCC(C(=O)OCc1ccccc1)C(CO)Cc1cncn1C (stereo not drawn) | 1.97
124 | COc1cccc2c1C(=O)c1c(O)c3c(c(O)c1C2=O)CC(O)(C(C)=O)CC3OC1CC(N2CCOCC2)C(O)C(C)O1 (stereo not drawn) | 2.31
125 | Cc1cn([C@H]2C[C@H](O)[C@@H](CO)O2)c(=O)[nH]c1=O | -0.93
126 | CCc1cccc2ccccc12 | 4.4
127 | CCNc1ccc(C(=O)OCCN(C)C)cc1 | 2.62
128 | O=C(CN1CCCCC1)Nc1ccc(Cl)c(Cl)c1 | 3.65
129 | CCOc1cccc(NC(=O)CN2CCCCC2)c1 | 3.17
130 | CC(N)CC1CCCCCCC1 (stereo not drawn) | 3.7
131 | CCCCCCCCCCC(C)(C)c1ccc(C2CCCC(O)C2)c(O)c1 (stereo not drawn) | 8.42
132 | CN(C)[C@@H]1C(O)=C(C(N)=O)C(=O)[C@@]2(O)C(O)=C3C(=O)c4c(O)ccc(Cl)c4[C@@](C)(O)[C@H]3C[C@@H]12 | -0.62
133 | Cc1cccc(C2C(=O)c3ccccc3C2=O)c1 | 3.46
